# In patent publication US12637410B2, “Vesicular monoamine transporter-2 ligands and their use in the treatment of psychostimulant abuse” (priority 2016, dated 2026):
# Read-outs that look alike come from different tables or passages of the source.
# Columns and labels:
# [1] = Microsomal assays, human liver microsomes; details: for half-life at 0.08 µM: both, human, pH 7.4; for Microsomal stability assays: Species/Half-life (hr) Human: human liver microsomes
# Experimental: (§1) Each plate holds triplicate samples of two controls (0.4 mM) and up to 14 compounds (0.08 mM) in rat and human liver microsomes. Aliquots of each well of the plate (175 μl of each well) were transferred from the master plate into 5 assay plates. […] NADPH regenerating system solution A (6.05 ml, Fisher Scientific, #NC9255727) was combined with NADPH regenerating system solution B (1.21 ml, Fisher Scientific, #NC9016235) in potassium phosphate buffer (15.8 ml, 0.1 M, pH 7.4, 37° C.). The resulting NADPH solution (43.8 μl) was added to each well of all the 96-well assay plates and mixed with pipette briefly making the final protein and compound concentrations respectively: 0.5 mg/ml, 0.08 μM (0.4 μM for controls). Plates were sealed, and all plates except the 0-hr plate were incubated at 37° C., shaken at a speed of 60 rpm. A single assay plate was tested at each time point: 0.5 hr, 1 hr, 2 hr, and 4 hr. At each time point, 437.5 μL of pre-cooled internal standard was added each well of the plate to quench the reaction. […] 120 μl supernatant was transferred to a 96-well plate, centrifuged again and analyzed by UPLC-MS (Waters Inc., Milford, MA). The compounds and internal standard were detected by selected ion recording (SIR).
# (§2) The amount of material was measured as a ratio of peak area to the internal standard and graphed. Using the slope from the initial linear portion of this curve, the degradation rate constant is calculated using equation [1]. The rate constant was then used to calculate the compounds half-life in plasma using equation [2].
# [2] = Pharmacokinetic assays in mice (iv, po, sc); type: in vivo
# [3] = system: METH-stimulated locomotor activity; assay: METH-stimulated locomotor activity in rats; type: in vivo, rat; details: s.c.
# Experimental: A series of VMAT2 inhibitors were synthesized and evaluated for their activity at VMAT2, dopamine transporters (DAT), and serotonin transporters (SERT) using rat striatum, hERG channels expressed by HEK-293 cells, and for their effect on METH-stimulated locomotor activity in rats.
# The compounds of the invention were also evaluated for their effect on METH-stimulated locomotor activity in rats.
# in vitro [4] = details: female, Sprague-Dawley, rat, pH 7.4
# Experimental: as §1, §2
# VMAT2 = molecular target: T1, VMAT2 (Rattus norvegicus, UniProt Q01827); assay: [3H]Dopamine ([3H]DA) uptake assay, vesicular preparation; type: biochemical
# T1 construct: from tissue; host or cells: rat striatum, isolated synaptic vesicles
# T1 sequence (Q01827 whole entry): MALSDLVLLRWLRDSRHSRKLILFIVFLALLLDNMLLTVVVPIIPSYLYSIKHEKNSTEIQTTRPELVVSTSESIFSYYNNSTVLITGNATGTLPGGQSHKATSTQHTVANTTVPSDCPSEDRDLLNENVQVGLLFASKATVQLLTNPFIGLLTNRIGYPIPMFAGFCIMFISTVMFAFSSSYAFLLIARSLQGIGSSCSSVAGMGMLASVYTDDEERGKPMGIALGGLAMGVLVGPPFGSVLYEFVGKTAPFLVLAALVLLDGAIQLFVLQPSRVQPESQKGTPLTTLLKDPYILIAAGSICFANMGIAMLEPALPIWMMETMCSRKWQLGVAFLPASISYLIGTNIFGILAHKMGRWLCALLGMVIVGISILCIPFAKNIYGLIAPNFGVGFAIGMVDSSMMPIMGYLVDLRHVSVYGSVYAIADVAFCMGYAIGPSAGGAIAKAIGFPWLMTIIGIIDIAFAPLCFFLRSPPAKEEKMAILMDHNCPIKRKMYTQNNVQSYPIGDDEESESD
# in vitro [5] = details: both, human, pH 7.4
# Experimental: as §1, §2
# [6] = Pharmacokinetic assays in rats (iv, po, sc); details: rat
# Experimental: (§3) Animals: Oral and intravenous dose pharmacokinetic studies were conducted in tandem in age matched female Swiss Webster mice and/or age matched male Sprague-Dawley rats purchased from Envigo-Harlan. Animals were housed in IVC cages with wood chip bedding and given food and water ad libitum.
# (§4) Dose Formulation and Administration Volumes: Hydrochloric acid salts or free base forms were used for formulation.
# (§5) Pharmacokinetic Studies: Groups of 6 animals were dosed with formulated test compound by bolus lateral tail vein injection (iv), by oral gavage (po), or by subcutaneous injection (sc) into left hind flank. […] Whole blood samples were collected into microtubes and centrifuged at 4000×g for 2 min. Plasma supernatants were collected and immediately frozen on dry ice, then transferred to a −80° C. freezer to await processing for LC-MS/MS analysis. Typical dose rates were 2 mg/kg iv, 10 mg/kg po, and <30 mg/kg sc.
# (§6) Plasma calibrators (usually 0.25, 0.5, 1, 5, 15, 30, 100, 400, 700, and 1000 ng/mL) were generated by the addition of 5 μL of appropriate spiking solution into 100 μL blank plasma followed by vortex mixing. Plasma QC samples (usually 0.75, 25, 500, and 850 ng/mL) were prepared in a similar manner using an independent 2nd analyte stock solution. Calibrators and QCs were stored alongside experimental samples at −80° C. until analysis.
# (§7) Analyte and internal standard contained in 5 μL sample injections (15° C. temp.; 1.5 mL 0.1% formic acid in MeOH or 1:1 MeOH: isopropanol injector rinse; 10 sec rinse dip time) were eluted from a guard-protected (2.7 μL, 3×5 mm) Agilent Poroshell 120 EC-C18 (2.7 μL, 3×50 mm; oven temp. 40° C.) analytical column with a 0.1% formic acid in water (mobile Phase-A): 0.1% formic acid in acetonitrile (mobile Phase-B) gradient. […] Positive-mode ESI Turbo V® source and MS gas, temperature, and probe settings were optimized for 0.4 mL flow rate at CUR=35/ISV=4500/TEM=550/GS1=65/GS2=65/CAD=10 with the probe position=7/0.5 horizontal/vertical. […] ISTD voltage potentials were set at DP=70, EP=10, CE=35 and CXP=6. Sample sequences consisted of single randomized experimental sample injections flanked by sets of blanks, calibrators and QCs with QCs interspersed, as needed, to maintain >5% total QC to experimental sample occurrence. High QCs (5,000 and 10,000 ng/mL) were inserted at end of sequence prior to second calibrator injections. Calibration curves were typically constructed by weighted (1/x^2) non-linear regression analysis of analyte/ISTD concentration ratios to analyte/ISTD peak area ratios using AB SciexMultiQuant software (Ver 3.0.31721.0).
# hERG channel = molecular target: T2, hERG channel (Homo sapiens, UniProt Q12809); assay: [3H]Dofetilide binding assay, HEK-293 cell membrane preparation; details: hERG Binding: Mean Ki (nM)
# T2 construct: purchased; host or cells: HEK-293 cells stably expressing hERG (membranes)
# T2 sequence (Q12809 whole entry): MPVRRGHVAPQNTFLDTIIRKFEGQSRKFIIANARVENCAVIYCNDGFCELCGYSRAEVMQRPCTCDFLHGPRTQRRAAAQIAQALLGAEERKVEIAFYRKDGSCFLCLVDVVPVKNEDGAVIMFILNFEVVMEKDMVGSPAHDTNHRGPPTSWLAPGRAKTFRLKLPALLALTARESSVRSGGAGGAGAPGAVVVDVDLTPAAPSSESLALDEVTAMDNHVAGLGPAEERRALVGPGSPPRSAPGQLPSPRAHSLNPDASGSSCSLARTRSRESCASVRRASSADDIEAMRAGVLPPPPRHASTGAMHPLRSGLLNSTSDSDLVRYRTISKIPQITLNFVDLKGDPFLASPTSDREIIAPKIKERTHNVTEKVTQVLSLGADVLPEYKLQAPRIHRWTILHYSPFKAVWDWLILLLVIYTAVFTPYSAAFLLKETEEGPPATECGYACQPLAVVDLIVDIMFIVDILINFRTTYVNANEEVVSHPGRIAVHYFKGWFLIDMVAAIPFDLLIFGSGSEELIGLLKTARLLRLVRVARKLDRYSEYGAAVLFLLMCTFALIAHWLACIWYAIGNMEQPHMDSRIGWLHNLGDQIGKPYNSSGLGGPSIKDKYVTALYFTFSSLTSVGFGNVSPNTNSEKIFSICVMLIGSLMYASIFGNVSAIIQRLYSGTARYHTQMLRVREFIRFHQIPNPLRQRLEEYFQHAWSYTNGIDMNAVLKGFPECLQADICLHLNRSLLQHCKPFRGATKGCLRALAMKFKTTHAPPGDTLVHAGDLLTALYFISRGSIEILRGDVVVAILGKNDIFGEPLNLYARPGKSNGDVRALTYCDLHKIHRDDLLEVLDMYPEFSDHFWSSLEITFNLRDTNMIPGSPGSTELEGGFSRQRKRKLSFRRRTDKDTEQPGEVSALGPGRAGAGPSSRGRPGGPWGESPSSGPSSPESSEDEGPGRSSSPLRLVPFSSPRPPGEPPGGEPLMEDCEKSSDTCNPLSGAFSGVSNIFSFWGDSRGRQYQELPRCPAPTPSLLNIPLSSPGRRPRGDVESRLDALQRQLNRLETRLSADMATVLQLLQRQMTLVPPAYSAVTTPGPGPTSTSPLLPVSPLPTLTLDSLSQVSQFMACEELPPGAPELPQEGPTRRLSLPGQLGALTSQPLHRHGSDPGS
# Experimental: Membranes were suspended in assay buffer (50 mM Tris, 10 mM KCl, 1 mM MgCl2, pH 7.4) prior to the experiment. […] Nonspecific binding was determined in the presence of amitriptyline (1 mM). Samples were incubated for 1 hr. at 24° C., followed by rapid filtration.
# in vivo = details: male, Sprague-Dawley, rat
# Experimental: as §3, §4, §5, §6, §7
# [7] = molecular target: dopamine transporter (DAT) (Rattus norvegicus, UniProt P23977); assay: [3H]DA uptake assay, synaptosomal preparation
# Sequence of dopamine transporter (DAT) (P23977 whole entry): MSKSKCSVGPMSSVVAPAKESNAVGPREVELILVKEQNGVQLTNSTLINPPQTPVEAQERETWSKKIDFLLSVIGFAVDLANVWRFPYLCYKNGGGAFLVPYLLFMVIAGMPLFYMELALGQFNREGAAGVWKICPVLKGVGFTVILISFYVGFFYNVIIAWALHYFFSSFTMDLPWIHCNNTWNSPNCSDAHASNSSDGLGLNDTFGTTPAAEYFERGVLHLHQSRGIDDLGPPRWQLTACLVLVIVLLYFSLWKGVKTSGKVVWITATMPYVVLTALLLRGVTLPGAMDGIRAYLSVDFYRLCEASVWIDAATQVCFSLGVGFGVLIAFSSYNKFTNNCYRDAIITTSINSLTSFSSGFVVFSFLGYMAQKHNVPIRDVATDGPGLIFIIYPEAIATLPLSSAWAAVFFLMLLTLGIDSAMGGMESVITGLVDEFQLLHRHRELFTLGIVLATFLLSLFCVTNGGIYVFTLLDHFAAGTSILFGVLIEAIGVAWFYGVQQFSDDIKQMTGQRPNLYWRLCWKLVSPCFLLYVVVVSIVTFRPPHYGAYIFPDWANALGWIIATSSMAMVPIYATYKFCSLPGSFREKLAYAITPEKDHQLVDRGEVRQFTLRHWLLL
# Experimental: [^3H]DA and [3H]5-HT uptake into striatal synaptosomes was determined to evaluate compound inhibition of the dopamine transporter (DAT) and the serotonin transporter (SERT), respectively. […] Assays were performed in duplicate in a total volume of 500 μL (for DAT assays) or 250 μL (for SERT assays). Aliquots of the synaptosomal suspension (25 μL for DAT, 50 μL for SERT) were added to tubes containing assay buffer and various concentrations of analog (1 nM-100 μM), and incubated at 34° C. for 5 min. Nonspecific uptake was determined in the presence of nomifensine (10 μM) for DAT assays or fluoxetine (10 μM) for SERT assays. […] Samples were placed on ice, and 50 μL of 0.1 μM [^3H]DA (for DAT assays) or 25 μL of 0.1 μM [^3H]5-HT (for SERT assays) was added to each tube, and incubated for 10 min at 34° C. Reactions were terminated by addition of 3 mL of ice-cold assay buffer and subsequent filtration and radioactivity retained by the filters was determined by liquid scintillation spectrometry (Tri-Carb 2100TR liquid scintillation analyzer; PerkinElmer Life and Analytical Sciences, Boston, MA).
# [8] = Microsomal assays, rat liver microsomes; details: for CLint scaled at 0.08 µM / half-life at 0.08 µM: female, Sprague-Dawley, rat, pH 7.4; for Microsomal stability assays: Species/Half-life (hr) Rat: rat liver microsomes
# Experimental: as §1, §2
# [9] = both, 0.08 µM, pH 7.4
# Experimental: as §1, §2
# [10] = female, Sprague-Dawley, 0.08 µM, pH 7.4
# Experimental: as §1, §2
# rat striatal slices = details: cited from earlier work
# METH self-administration = details: in vivo; cited from earlier work
# [11] = [3H]dofetilide binding, HEK-293 membranes, mean of n>=3 unless N given
smiles,measurement,setting,value
CC(Cc1ccncc1)NCCCc1ccc(F)cc1 (stereo not shown) [Compound 187],half-life at 0.08 µM,[1],> 240 min
same,Bioavail. (F %) Fmice,[2],Fmice: 9.4%
COc1ccc(CCCN[C@H](C)Cc2ccccc2)cc1.Cl [Compound 9],METH-stimulated locomotor activity,[3]; 3 mg/kg,significant reduction
Fc1ccc(CCCNC(Cc2ccccc2)Cc2ccccc2)cc1 [Compound 292],half-life at 0.08 µM,in vitro [4],< 6 min
same,Ki,VMAT2,346 nM
same,half-life at 0.08 µM,in vitro [5],36 min
CC(Cc1ccc(F)c(F)c1)NCCCc1ccc(NC(N)=O)cc1 (stereo not shown) [Compound 229],Ki,VMAT2,36 nM
same,Bioavail. (F %) Frat,[6],Frat: 22%
same,Ki,"hERG channel; Table 4, mean, minimally n = 3",4290 nM
same,Ki,hERG channel; [11],4290 nM
same,bioavailability,in vivo; po,94%
same,Ki,[7],1530 nM
same,CLint scaled at 0.08 µM,[8],41 mL/min/kg
CC(Cc1ccc(F)cc1)NCCCc1ccc(CN)cc1 (stereo not shown) [Compound 285],half-life at 0.08 µM,[1],> 240 min
same,Ki,VMAT2,461 nM
same,half-life at 0.08 µM,[8],> 240 min
CC(Cc1ccc(F)cc1)NC(=O)CCc1ccc(C#N)cc1 (stereo not shown) [Compound 294],half-life at 0.08 µM,[1],48 min
same,Ki,VMAT2,40600 nM
same,half-life at 0.08 µM,[8],48 min
CC(Cc1ccc(F)cc1)NC(=O)CCc1ccc([N+](=O)[O-])cc1 (stereo not shown) [Compound 293],half-life at 0.08 µM,in vitro [4],30 min
same,Ki,VMAT2,10800 nM
same,half-life at 0.08 µM,in vitro [5],24 min
"COc1ccc(CCCN[C@@H](C)Cc2ccccc2)cc1.Cl [Compound 10, (S)-3-(4-methoxyphenyl)-N-(1-phenylpropan-2-yl)propan-1-amine]",METH-stimulated locomotor activity,[3]; 17 mg/kg,significant reduction
CC(Cc1ccc(C(F)(F)F)cc1)NCCCc1ccc(O)cc1 (stereo not shown) [Compound 209],Microsomal stability assays: Species/Half-life (hr) Human,[1],0.1 h
same,Microsomal stability assays: Species/Half-life (hr) Rat,[8],0.2 h
FCC(Cc1ccc(-c2cncnc2)cc1)NCCCc1ccc(F)cc1 (stereo not shown) [Compound 68],Ki,VMAT2,5 nM
same,Microsomal stability assays: Species/Half-life (hr) Human,[9],0.1 h
O=[N+]([O-])c1ccc(CCCNC(CF)Cc2ccc(F)cc2)cc1 (stereo not shown) [Compound 123],Microsomal stability assays: Species/Half-life (hr) Human,[1],1.2 h
same,Ki,"VMAT2; [3H]DA uptake, rat vesicular preparation, mean of n>=3 unless N given, read-out: VMAT2 (rat) Inhibition: Mean Ki",44 nM
same,Microsomal stability assays: Species/Half-life (hr) Rat,[8],0.4 h
CC(Cc1ccccc1)NCCCc1ccc(F)cc1 (stereo not shown) [Compound 249],half-life at 0.08 µM,[1],72 min
same,Bioavail. (F %) Fmice,[2],Fmice: 2.0%
same,Ki,VMAT2,6 nM
same,Ki,hERG channel; [11],3000 nM
same,half-life at 0.08 µM,[8],18 min
OCC(Cc1ccc(F)cc1)NCCCc1ccc(Br)cc1 (stereo not shown) [Compound 154],Microsomal stability assays: Species/Half-life (hr) Rat,[10],0.1 h
CN1[C@@H](CCc2ccccc2)CCC[C@H]1CCc1ccccc1 [Lobelane],METH-evoked DA overflow,rat striatal slices,decreases METH-evoked DA overflow
same,METH self-administration,METH self-administration,decreases METH self-administration
CC(Cc1ccc(F)c(F)c1)NCCCc1cccc(NC(N)=O)c1 (stereo not shown) [Compound 235],Ki,VMAT2,4 nM
same,Ki,"hERG channel; Table 4, mean, minimally n = 3",4380 nM
same,Ki,hERG channel; [11],4380 nM
same,bioavailability,in vivo; po,8%
same,Ki,[7],1290 nM
same,CLint scaled at 0.08 µM,[8],71 mL/min/kg
CC(Cc1ccc(F)c(F)c1)NCCCc1ccc(S(N)(=O)=O)cc1 (stereo not shown) [Compound 230],Ki,VMAT2,42 nM
same,Bioavail. (F %) Frat,[6],Frat: >100%
same,Ki,"hERG channel; Table 4, mean, minimally n = 3",1030 nM
same,Ki,hERG channel; [11],1030 nM
same,bioavailability,in vivo; po,94%
same,bioavailability,in vivo; sc,44%
same,Ki,[7],8240 nM
same,CLint scaled at 0.08 µM,[8],< 17 mL/min/kg
CC(Cc1ccc2nccnc2c1)NCCCc1ccc(C(N)=O)cc1 (stereo not shown) [Compound 307],Ki,VMAT2,17 nM
same,Ki,"hERG channel; Table 4, mean, minimally n = 3",21000 nM
same,bioavailability,in vivo; po,8%
same,bioavailability,in vivo; sc,> 100%
same,Ki,[7],8890 nM
same,CLint scaled at 0.08 µM,[8],51 mL/min/kg
